In patent EP1202975B1, “SUBSTITUTED POLYCYCLIC ARYL AND HETEROARYL PYRAZINONES USEFUL FOR SELECTIVE INHIBITION OF THE COAGULATION CASCADE” (Pharmacia Corporation, priority 1999, dated 2000):
Read-outs that look alike come from different tables or passages of the source.

Legend:
TF-VIIa = target: T1, TF-VIIa (Homo sapiens, UniProt P08709); assay: TF-VIIa Assay; assay type: biochemical
T1 construct: 2nM recombinant human factor VIIa; purchased American Diagnostica, Greenwich CT; host or cells: soluble TF made in house in E. coli
T1 sequence (P08709 213-466 limits assumed): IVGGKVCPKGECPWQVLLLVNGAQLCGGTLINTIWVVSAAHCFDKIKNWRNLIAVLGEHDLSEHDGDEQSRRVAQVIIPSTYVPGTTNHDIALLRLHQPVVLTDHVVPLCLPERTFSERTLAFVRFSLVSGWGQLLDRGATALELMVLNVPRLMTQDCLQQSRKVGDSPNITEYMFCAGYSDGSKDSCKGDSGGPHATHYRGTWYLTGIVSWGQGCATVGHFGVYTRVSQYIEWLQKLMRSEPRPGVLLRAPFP
T1 sequence (P08709 61-212 limits assumed): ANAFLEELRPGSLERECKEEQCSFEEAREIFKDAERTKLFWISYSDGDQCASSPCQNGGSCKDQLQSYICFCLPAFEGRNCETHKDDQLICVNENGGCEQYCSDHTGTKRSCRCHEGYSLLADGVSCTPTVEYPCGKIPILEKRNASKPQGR
T1 sequence (P13726 33-251 partner limits assumed): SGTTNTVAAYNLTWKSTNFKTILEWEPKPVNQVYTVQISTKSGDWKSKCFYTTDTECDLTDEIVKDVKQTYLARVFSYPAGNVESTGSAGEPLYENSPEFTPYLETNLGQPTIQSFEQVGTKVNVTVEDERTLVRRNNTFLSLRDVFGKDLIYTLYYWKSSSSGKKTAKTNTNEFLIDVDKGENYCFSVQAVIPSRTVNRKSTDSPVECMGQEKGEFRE

Human factor Xa = Human factor Xa (Homo sapiens, UniProt P00742); assay: Xa Assay; conditions: for IC50: read-out: IC50 or % Inhibition Factor Xa (30 µM), cells given as a plain number (IC50); for IC50 or % Inhibition Factor Xa (30 µM): % inhibition at 30 µM
Sequence of Human factor Xa (P00742 235-488 limits assumed): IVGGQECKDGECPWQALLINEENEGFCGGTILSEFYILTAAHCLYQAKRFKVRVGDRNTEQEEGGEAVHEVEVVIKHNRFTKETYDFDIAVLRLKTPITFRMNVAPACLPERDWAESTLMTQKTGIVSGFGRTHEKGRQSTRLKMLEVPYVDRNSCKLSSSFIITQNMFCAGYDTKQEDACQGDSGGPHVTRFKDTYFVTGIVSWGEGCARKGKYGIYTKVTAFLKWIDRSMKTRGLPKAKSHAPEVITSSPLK
Sequence of Human factor Xa (P00742 41-179 limits assumed): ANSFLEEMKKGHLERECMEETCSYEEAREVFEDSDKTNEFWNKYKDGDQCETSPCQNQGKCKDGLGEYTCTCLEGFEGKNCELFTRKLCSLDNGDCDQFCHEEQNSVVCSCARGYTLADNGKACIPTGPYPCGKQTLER

[1] = read-out: IC50 or % Inhibition TF-VIIa (30 µM); cells given as a plain number (IC50)
[2] = cells given as a plain number (IC50); read-out: IC50 or % Inhibition TF-VIIa (30 µM)

| SMILES | IC50 (TF-VIIa; [1]) [µM] | IC50 (Human factor Xa) [µM] | other results |
| --- | --- | --- | --- |
| N=C(N)c1ccc(CNC(=O)Cn2c(-c3ccccc3Cl)c(Cl)nc(NCc3ccccc3)c2=O)cc1 [1515-04] | 5.2 | > 30 | – |
| N=C(N)c1ccc(CNC(=O)Cn2c(-c3cccs3)c(Cl)nc(NCc3ccccc3)c2=O)cc1 [1515-06] | 1.7 | > 30 | – |
| N=C(N)c1ccc(CNC(=O)Cn2c(-c3cccc(F)c3)c(Cl)nc(NCc3ccccc3)c2=O)cc1 [1515-09] | 4.1 | > 30 | – |
| N=C(N)c1ccc(CNC(=O)Cn2c(-c3cccc(Br)c3)c(Cl)nc(NCc3ccccc3)c2=O)cc1 [1515-10] | 5.7 | > 30 | – |
| N=C(N)c1ccc(CNC(=O)Cn2c(-c3ccccc3F)c(Cl)nc(NCc3ccccc3)c2=O)cc1 [1515-11] | 4.3 | > 30 | – |
| COc1ccccc1-c1c(Cl)nc(NC2CCC2)c(=O)n1CC(=O)NCc1ccc(C(=N)N)cc1 [1515-14] | 2.9 | > 30 | – |
| N=C(N)c1ccc(CNC(=O)Cn2c(-c3cccs3)c(Cl)nc(NC3CCC3)c2=O)cc1 [1515-18] | 0.6 | > 30 | – |
| N=C(N)c1ccc(CNC(=O)Cn2c(-c3ccc(F)cc3)c(Cl)nc(NC3CCC3)c2=O)cc1 [1515-19] | 24.2 | > 30 | – |
| N=C(N)c1ccc(CNC(=O)Cn2c(-c3ccc(C(F)(F)F)cc3)c(Cl)nc(NC3CCC3)c2=O)cc1 [1515-20] | – | > 30 | IC50 or % Inhibition TF-VIIa (30 µM) (TF-VIIa): 32% |
| N=C(N)c1ccc(CNC(=O)Cn2c(-c3cccc(Br)c3)c(Cl)nc(NC3CCC3)c2=O)cc1 [1515-22] | – | > 30 | IC50 (TF-VIIa; [2]): 4.2 µM |
| N=C(N)c1ccc(CNC(=O)Cn2c(-c3ccccc3F)c(Cl)nc(NC3CCC3)c2=O)cc1 [1515-23] | 6.2 | > 30 | – |
| N=C(N)c1ccc(CNC(=O)Cn2c(-c3ccccc3C(F)(F)F)c(Cl)nc(NC3CCC3)c2=O)cc1 [1515-24] | 1.6 | > 30 | – |
| N=C(N)c1ccc(CNC(=O)Cn2c(-c3cccc(C(F)(F)F)c3)c(Cl)nc(NCCc3ccccc3)c2=O)cc1 [1515-25] | – | > 30 | IC50 (TF-VIIa; [2]): 2.9 µM |
| COc1ccccc1-c1c(Cl)nc(NCCc2ccccc2)c(=O)n1CC(=O)NCc1ccc(C(=N)N)cc1 [1515-26] | – | > 30 | IC50 (TF-VIIa; [2]): 1.6 µM |
| N=C(N)c1ccc(CNC(=O)Cn2c(-c3cccs3)c(Cl)nc(NCCc3ccccc3)c2=O)cc1 [1515-30] | 1.2 | > 30 | – |
| N=C(N)c1ccc(CNC(=O)Cn2c(-c3cccc(Br)c3)c(Cl)nc(NCCc3ccccc3)c2=O)cc1 [1515-34] | 4.4 | > 30 | – |

| SMILES | IC50 (TF-VIIa; [1]) [µM] | IC50 (Human factor Xa) [µM] | other results |
| --- | --- | --- | --- |
| N=C(N)c1ccc(CNC(=O)Cn2c(-c3ccccc3F)c(Cl)nc(NCCc3ccccc3)c2=O)cc1 [1515-35] | – | > 30 | IC50 (TF-VIIa; [2]): 1.8 µM |
| CCCCNc1nc(Cl)c(-c2ccccc2)n(CC(=O)NCc2ccc(C(=N)N)cc2)c1=O [1517-35] | – | – | IC50 or % Inhibition TF-VIIa (30 µM) (TF-VIIa; % inhibition at 30 µM): 33%; IC50 or % Inhibition Factor Xa (30 µM) (Human factor Xa): 0% |
| CC(C)CCNc1nc(Cl)c(-c2ccccc2)n(CC(=O)NCc2ccc(C(=N)N)cc2)c1=O [1517-40] | – | – | IC50 (TF-VIIa; [2]): 1.2 µM; IC50 or % Inhibition Factor Xa (30 µM) (Human factor Xa): 0% |
| CC(C)(C)CCNc1nc(Cl)c(-c2ccccc2)n(CC(=O)NCc2ccc(C(=N)N)cc2)c1=O [1517-41] | – | – | IC50 (TF-VIIa; [2]): 2.2 µM; IC50 or % Inhibition Factor Xa (30 µM) (Human factor Xa): 0% |
| CC(C)(C)CCNc1nc(Cl)c(-c2ccccc2)n(CC(=O)NCc2ccc(C(=N)N)cc2)c1=O [1522-18] | – | > 30 | IC50 (TF-VIIa; [2]): 1.7 µM |
| CC(CNc1nc(Cl)c(-c2ccccc2)n(CC(=O)NCc2ccc(C(=N)N)cc2)c1=O)N(C)C (stereo not drawn) [1522-23] | 2.2 | > 30 | – |
| N=C(N)c1ccc(CNC(=O)Cn2c(-c3ccccc3)c(Cl)nc(NC3CCCCCC3)c2=O)cc1 [1522-36] | – | > 30 | IC50 (TF-VIIa; [2]): 1 µM |
| N=C(N)c1ccc(CNC(=O)Cn2c(-c3ccccc3)c(Cl)nc(NCCCCN3CCCC3)c2=O)cc1 [1522-42] | 1 | > 30 | – |
| N=C(N)c1ccc(CNC(=O)Cn2c(-c3ccccc3)c(Cl)nc(NC3CC4CCC3C4)c2=O)cc1 (stereo not drawn) [1522-44] | – | > 30 | IC50 (TF-VIIa; [2]): 0.8 µM |
| COCC(C)Nc1nc(Cl)c(-c2cccc(N)c2)n(CC(=O)NCc2ccc(C(=N)N)cc2)c1=O (stereo not drawn) [1526-05] | 0.1 | > 30 | – |
| CCCNc1nc(Cl)c(-c2cccc(N)c2)n(CC(=O)NCc2ccc(C(=N)N)cc2)c1=O [1526-13] | 0.06 | > 30 | – |
| CC(C)C(C)Nc1nc(Cl)c(-c2cccc(N)c2)n(CC(=O)NCc2ccc(C(=N)N)cc2)c1=O (stereo not drawn) [1526-15] | 0.06 | > 30 | – |
| C#CCNc1nc(Cl)c(-c2cccc(N)c2)n(CC(=O)NCc2ccc(C(=N)N)cc2)c1=O [1526-21] | 0.05 | > 30 | – |
| CC(C)CNc1nc(Cl)c(-c2cccc(N)c2)n(CC(=O)NCc2ccc(C(=N)N)cc2)c1=O [1526-26] | 0.06 | > 30 | – |
| C[C@H](Nc1nc(Cl)c(-c2cccc(N)c2)n(CC(=O)NCc2ccc(C(=N)N)cc2)c1=O)C1CCCCC1 [1526-29] | 0.12 | > 30 | – |

The next lines start with results.

| IC50 (TF-VIIa; [1]) [µM] | IC50 (Human factor Xa) [µM] | SMILES | other results |
| --- | --- | --- | --- |
| 4 | > 30 | COc1cccc(-c2c(Cl)nc(NCc3ccccc3)c(=O)n2CC(=O)NCc2ccc(C(=N)N)cc2)c1 [1515-05] | – |
| 14.2 | > 30 | N=C(N)c1ccc(CNC(=O)Cn2c(-c3ccc(F)cc3)c(Cl)nc(NCc3ccccc3)c2=O)cc1 [1515-07] | – |
| 6.3 | > 30 | N=C(N)c1ccc(CNC(=O)Cn2c(-c3ccccc3C(F)(F)F)c(Cl)nc(NCc3ccccc3)c2=O)cc1 [1515-12] | – |
| 8.8 | > 30 | N=C(N)c1ccc(CNC(=O)Cn2c(-c3ccccc3Cl)c(Cl)nc(NC3CCC3)c2=O)cc1 [1515-16] | – |
| 4.4 | > 30 | COc1cccc(-c2c(Cl)nc(NC3CCC3)c(=O)n2CC(=O)NCc2ccc(C(=N)N)cc2)c1 [1515-17] | – |
| 1.1 | > 30 | N=C(N)c1ccc(CNC(=O)Cn2c(-c3sccc3Br)c(Cl)nc(NCCc3ccccc3)c2=O)cc1 [1515-27] | – |
| – | > 30 | N=C(N)c1ccc(CNC(=O)Cn2c(-c3cccc(F)c3)c(Cl)nc(NCCc3ccccc3)c2=O)cc1 [1515-33] | IC50 (TF-VIIa; [2]): 2.3 µM |
| 0.27 | > 30 | N=C(N)c1ccc(CNC(=O)Cn2c(-c3ccccc3)c(Cl)nc(NCCN3CCCC3)c2=O)cc1 [1522-08] | – |
| – | > 30 | CC(C)CCNc1nc(Cl)c(-c2ccccc2)n(CC(=O)NCc2ccc(C(=N)N)cc2)c1=O [1522-14] | IC50 (TF-VIIa; [2]): 0.84 µM |
| 0.54 | > 30 | CC(C)C(C)Nc1nc(Cl)c(-c2ccccc2)n(CC(=O)NCc2ccc(C(=N)N)cc2)c1=O (stereo not drawn) [1522-15] | – |
| 0.62 | > 30 | CC(C)CC(C)Nc1nc(Cl)c(-c2ccccc2)n(CC(=O)NCc2ccc(C(=N)N)cc2)c1=O (stereo not drawn) [1522-17] | – |
| – | > 30 | CC(C)CNc1nc(Cl)c(-c2ccccc2)n(CC(=O)NCc2ccc(C(=N)N)cc2)c1=O [1522-34] | IC50 (TF-VIIa; [2]): 0.5 µM |
| 4 | > 30 | CCN1CC(Nc2nc(Cl)c(-c3ccccc3)n(CC(=O)NCc3ccc(C(=N)N)cc3)c2=O)CN1CC [1522-35] | – |
| 2 | > 30 | N=C(N)c1ccc(CNC(=O)Cn2c(-c3ccccc3)c(Cl)nc(NCCNc3ncc(C(F)(F)F)cc3Cl)c2=O)cc1 [1522-37] | – |
| 1 | > 30 | N=C(N)c1ccc(CNC(=O)Cn2c(-c3ccccc3)c(Cl)nc(NCCNc3ncccc3C(F)(F)F)c2=O)cc1 [1522-38] | – |
| 0.8 | > 30 | C[C@H](Nc1nc(Cl)c(-c2ccccc2)n(CC(=O)NCc2ccc(C(=N)N)cc2)c1=O)C1CCCCC1 [1522-43] | – |
| – | > 30 | N=C(N)c1ccc(CNC(=O)Cn2c(-c3ccccc3)c(Cl)nc(NC3CCS(=O)(=O)C3)c2=O)cc1 (stereo not drawn) [1522-46] | IC50 (TF-VIIa; [2]): 1 µM |
| 0.02 | > 30 | N=C(N)c1ccc(CNC(=O)Cn2c(-c3cccc(N)c3)c(Cl)nc(NC3CC3)c2=O)cc1 [1526-01] | – |
| 0.03 | > 30 | N=C(N)c1ccc(CNC(=O)Cn2c(-c3cccc(N)c3)c(Cl)nc(NCC(F)(F)F)c2=O)cc1 [1526-04] | – |
| 0.08 | > 30 | CC(C)(C)Nc1nc(Cl)c(-c2cccc(N)c2)n(CC(=O)NCc2ccc(C(=N)N)cc2)c1=O [1526-07] | – |
| 0.03 | > 30 | CC[C@H](C)Nc1nc(Cl)c(-c2cccc(N)c2)n(CC(=O)NCc2ccc(C(=N)N)cc2)c1=O [1526-09] | – |
| – | > 30 | CCC(CC)Nc1nc(Cl)c(-c2cccc(N)c2)n(CC(=O)NCc2ccc(C(=N)N)cc2)c1=O [1526-11] | IC50 (TF-VIIa; [2]): 0.05 µM |
| 0.04 | > 30 | CCC(C)Nc1nc(Cl)c(-c2cccc(N)c2)n(CC(=O)NCc2ccc(C(=N)N)cc2)c1=O (stereo not drawn) [1526-14] | – |
| 0.04 | > 30 | CC[C@@H](C)Nc1nc(Cl)c(-c2cccc(N)c2)n(CC(=O)NCc2ccc(C(=N)N)cc2)c1=O [1526-16] | – |
| 0.04 | > 30 | C=CCNc1nc(Cl)c(-c2cccc(N)c2)n(CC(=O)NCc2ccc(C(=N)N)cc2)c1=O [1526-19] | – |
| 0.03 | > 30 | N=C(N)c1ccc(CNC(=O)Cn2c(-c3cccc(N)c3)c(Cl)nc(NC3CCC3)c2=O)cc1 [1526-23] | – |
| – | > 30 | COCCNc1nc(Cl)c(-c2cccc(N)c2)n(CC(=O)NCc2ccc(C(=N)N)cc2)c1=O [1526-25] | IC50 (TF-VIIa; [2]): 0.14 µM |
| 0.08 | > 30 | N=C(N)c1ccc(CNC(=O)Cn2c(-c3cccc(N)c3)c(Cl)nc(N[C@@H]3CC4CCC3C4)c2=O)cc1 (stereo partly drawn) [1526-30] | – |
| 0.26 | > 30 | N=C(N)c1ccc(CNC(=O)Cn2c(-c3cccc(N)c3)c(Cl)nc(NC[C@@H]3CCCO3)c2=O)cc1 [1526-33] | – |
